Measurements from patent US5696151A, “Compounds useful for the inhibition of the replication of HIV-1 and HIV-1 mutants” (priority 1995, dated 1997).
Values after ≈ are worked out from the molar mass of the structure shown.

Legend:
Type in all cases: cell-based
HIV-1/103-Asn = test: Inhibition of HIV-1 induced syncytium formation in CEM cells, RT mutant 103-Asn; details: Human immunodeficiency virus 1, CCRF-CEM, 96 h, Table 2B, day 4, averages of 2 to 3 independent experiments, read-out: Antiviral Activity of Comparative Compounds EC50, 103-Asn
From the text: (§1) CEM cells were obtained from the American Tissue Cell Culture Collection (Rockville, Md.). HIV-1(IIIB) was originally obtained from the culture supernatant of persistently HIV-1-infected H9 cells and was provided by R. C. Gallo and M. Popovic (National Cancer Institute, National Institutes of Health, Bethesda, Md.). […] 67: 5353-5359 (1993); HIV-1/Lys-138 ("Lys-138") was selected for resistance against TSAO-m^3T as described in Balzarini et al, Virology 192: 246-253 (1993) and Balzarini et al, Proc. Nat. Acad. Sci. USA 90: 6952-6956 (1993); HIV-1/181-Cys ("181-Cys") was selected for resistance against pyridinone L-697,661 as described in Balzarini et al, Virology 192: 246-253 (1993); and HIV-1/188-His ("188-His") was selected for resistance against HEPT as described in Balzarini et al, Mol. Pharmocol. 44: 694-701 (1993). 188-His was then further converted to HIV-1/188-Leu "188-Leu") upon further passage in cell culture in the absence of the HEPT.
(§2) CEM cells were suspended at ≈300,000 cells per ml of culture medium and infected with approximately 100 CCID50 (CCID50 being the 50% cell culture infective dose) of HIV-1(IIIB) or one of the HIV-1 RT mutant strains described above. Then 100 μl of the infected cell suspensions was added to 200 μl microtiter plate wells containing 100 μl of appropriate serial (5-fold) dilutions of the test compounds. The inhibitory effect of the test compounds on HIV-1 induced syncytium formation in CEM cells was examined microscopically on day 4 post infection.

HIV-1(IIIB) = test: Inhibition of HIV-1 induced syncytium formation in CEM cells, wild type; details: Table 2B, WT = HIV-1(IIIB), day 4, averages of 2 to 3 independent experiments; for EC50: Human immunodeficiency virus 1, IIIB, CCRF-CEM, 96 h, read-out: Antiviral Activity of Comparative Compounds EC50, WT
From the text: as §1, §2

HIV-1/188-Leu = test: Inhibition of HIV-1 induced syncytium formation in CEM cells, RT mutant 188-Leu; details: Human immunodeficiency virus 1, CCRF-CEM, 96 h, Table 2B, day 4, averages of 2 to 3 independent experiments, read-out: Antiviral Activity of Comparative Compounds EC50, 188-Leu
From the text: as §1, §2

HIV-1/106-Ala = test: Inhibition of HIV-1 induced syncytium formation in CEM cells, RT mutant 106-Ala; details: Table 2B, day 4, averages of 2 to 3 independent experiments; for EC50: Human immunodeficiency virus 1, CCRF-CEM, 96 h, read-out: Antiviral Activity of Comparative Compounds EC50, 106-Ala
From the text: as §1, §2

HIV-1/100-Ile = test: Inhibition of HIV-1 induced syncytium formation in CEM cells, RT mutant 100-Ile; details: Human immunodeficiency virus 1, CCRF-CEM, 96 h, Table 2B, day 4, averages of 2 to 3 independent experiments, read-out: Antiviral Activity of Comparative Compounds EC50, 100-Ile
From the text: as §1, §2

HIV-1/181-Cys = test: Inhibition of HIV-1 induced syncytium formation in CEM cells, RT mutant 181-Cys; details: Human immunodeficiency virus 1, CCRF-CEM, 96 h, Table 2B, day 4, averages of 2 to 3 independent experiments, read-out: Antiviral Activity of Comparative Compounds EC50, 181-Cys
From the text: as §1, §2

HIV-1/Lys-138 = test: Inhibition of HIV-1 induced syncytium formation in CEM cells, RT mutant 138-Lys; details: Human immunodeficiency virus 1, CCRF-CEM, 96 h, Table 2B, day 4, averages of 2 to 3 independent experiments, read-out: Antiviral Activity of Comparative Compounds EC50, 138-Lys
From the text: as §1, §2

in vitro = details: human, cem cells, CC50 (50% cytostatic concentration), Table 2B; CEM cell proliferation; averages of 2 to 3 independent experiments
From the text: as §1
^b 50% cytostatic concentration (i.e., compound concentration require
to inhibit CEM cell proliferation by 50%)

Compound | EC50 (HIV-1/103-Asn) [µg/mL] | EC50 (HIV-1(IIIB)) [µg/mL] | EC50 (HIV-1/188-Leu) [µg/mL] | EC50 (HIV-1/106-Ala) [µg/mL] | EC50 (HIV-1/100-Ile) [µg/mL] | EC50 (HIV-1/181-Cys) [µg/mL] | EC50 (HIV-1/Lys-138) [µg/mL] | CC50 (in vitro) [µg/mL] | Antiviral Activity of Comparative Compounds EC50, WT (HIV-1(IIIB)) [µg/mL] | Antiviral Activity of Comparative Compounds EC50, 106-Ala (HIV-1/106-Ala) [µg/mL]
CC=CCOc1cc(NC(=S)c2ccsc2C)ccc1Cl [Compound 1] | 0.048 (≈ 0.142 µM) | 0.0055 (≈ 0.0163 µM) | 0.65 (≈ 1.92 µM) | 0.023 (≈ 0.0681 µM) | 0.048 (≈ 0.142 µM) | 0.03 (≈ 0.0888 µM) | 0.018 (≈ 0.0533 µM) | 5.9 (≈ 17.5 µM) | – | –
CC=CCOc1cc(NC(=S)c2ccoc2C)ccc1Cl [Compound 2] | 0.023 (≈ 0.0715 µM) | 0.006 (≈ 0.0186 µM) | 0.65 (≈ 2.02 µM) | 0.04 (≈ 0.124 µM) | 0.048 (≈ 0.149 µM) | 0.075 (≈ 0.233 µM) | 0.018 (≈ 0.0559 µM) | 9 (≈ 28 µM) | – | –
Cc1occc1C(=S)Nc1ccc(Cl)c(C=NOC(C)(C)C)c1 [Compound 3] | 0.23 (≈ 0.656 µM) | – | 0.91 (≈ 2.59 µM) | – | 0.057 (≈ 0.162 µM) | 0.08 (≈ 0.228 µM) | 0.045 (≈ 0.128 µM) | 5.8 (≈ 16.5 µM) | 0.0065 | 0.03
CON=Cc1cc(NC(=S)c2ccoc2C)ccc1OC [Compound 4] | 0.4 (≈ 1.31 µM) | 0.007 (≈ 0.023 µM) | 0.93 (≈ 3.06 µM) | 0.22 (≈ 0.723 µM) | 0.22 (≈ 0.723 µM) | 0.59 (≈ 1.94 µM) | 0.039 (≈ 0.128 µM) | > 100 | – | –
CC1=C(C(=S)Nc2ccc(Cl)c(C=NOC(C)(C)C)c2)CCCO1 [Compound 5] | 0.08 (≈ 0.218 µM) | 0.013 (≈ 0.0354 µM) | > 2 | 0.025 (≈ 0.0681 µM) | 0.055 (≈ 0.15 µM) | 0.025 (≈ 0.0681 µM) | 0.04 (≈ 0.109 µM) | 10 (≈ 27.3 µM) | – | –
CC=CCSc1cc(NC(=S)c2ccoc2C)ccc1Cl [Compound 6] | 0.03 (≈ 0.0888 µM) | 0.0041 (≈ 0.0121 µM) | 1 (≈ 2.96 µM) | 0.018 (≈ 0.0533 µM) | 0.037 (≈ 0.11 µM) | 0.045 (≈ 0.133 µM) | 0.03 (≈ 0.0888 µM) | 4.7 (≈ 13.9 µM) | – | –
CC1=C(C(=S)Nc2ccc(Cl)c(C=NOC(C)(C)C)c2)CCO1 [Compound 7] | 0.058 (≈ 0.164 µM) | 0.0065 (≈ 0.0184 µM) | 1.2 (≈ 3.4 µM) | 0.03 (≈ 0.085 µM) | 0.055 (≈ 0.156 µM) | 0.045 (≈ 0.128 µM) | 0.04 (≈ 0.113 µM) | 11 (≈ 31.2 µM) | – | –
CC=CCSc1cc(NC(=S)c2ccsc2C)ccc1Cl [Compound 8] | 0.023 (≈ 0.065 µM) | 0.0055 (≈ 0.0155 µM) | > 2 | 0.023 (≈ 0.065 µM) | 0.032 (≈ 0.0904 µM) | 0.025 (≈ 0.0706 µM) | 0.025 (≈ 0.0706 µM) | 5.1 (≈ 14.4 µM) | – | –
Cc1c(C(=S)Nc2ccc(Cl)c(C=NOC(C)(C)C)c2)ccn1C [Compound 10] | 1.27 (≈ 3.49 µM) | 0.02 (≈ 0.055 µM) | > 2 | 0.23 (≈ 0.632 µM) | 0.65 (≈ 1.79 µM) | 0.033 (≈ 0.0907 µM) | 0.09 (≈ 0.247 µM) | 6.5 (≈ 17.9 µM) | – | –
Cn1ccc(C(=S)Nc2ccc(Cl)c(C=NOC(C)(C)C)c2)c1 [Compound 11] | 0.17 (≈ 0.486 µM) | 0.029 (≈ 0.0829 µM) | > 2 | 0.1 (≈ 0.286 µM) | 0.13 (≈ 0.372 µM) | 0.045 (≈ 0.129 µM) | 0.13 (≈ 0.372 µM) | 13 (≈ 37.2 µM) | – | –
Cc1sccc1C(=S)Nc1ccc(Cl)c(OCCC(C)C)c1 [Compound 12] | 0.035 (≈ 0.0989 µM) | 0.007 (≈ 0.0198 µM) | > 2 | 0.08 (≈ 0.226 µM) | 0.035 (≈ 0.0989 µM) | 0.07 (≈ 0.198 µM) | 0.035 (≈ 0.0989 µM) | > 100 | – | –
CCC1=C(C(=O)Nc2ccc(Cl)c(C(=O)OC3CCCCC3)c2)SCCO1 [Compound 13] | 0.38 (≈ 0.927 µM) | 0.08 (≈ 0.195 µM) | ≥ 2 | 0.17 (≈ 0.415 µM) | 0.26 (≈ 0.634 µM) | 0.07 (≈ 0.171 µM) | 0.25 (≈ 0.61 µM) | 11.4 (≈ 27.8 µM) | – | –
